Measurements: patent US20240156790A1, “COMPOUNDS, COMPOSITIONS, AND METHODS FOR MODULATING FERROPTOSIS AND TREATING EXCITOTOXIC DISORDERS” (THE TRUSTEES OF COLUMBIA UNIVERSITY IN THE CITY OF NEW YORK, priority 2018, published 2024)
Where two headings read alike, the source gives them in different places.

Columns and labels:
[1] = Microsomal stability, dog (Table 1); assay type: in vitro ADME; conditions: Dog: Beagle
Protocol: Each compound (1 μM) is incubated with mouse plasma, for 4 hours at 37° C., with shaking at 100 rpm. The concentration of compound in the buffer and plasma chambers is determined using LC-MS/MS. Metabolism of each compound is predicted using Sites of Metabolism (Schrodinger Suite), which combines intrinsic reactivity analysis (Hammett-Taft) with induced fit docking against 2C9, 2D6 and 3A4. This approach identifies 90% of known metabolism sites and has a false positive rate of 17%. The in vitro metabolic stability of each compound in mouse liver microsomes is determined. Pooled mouse liver microsomes are prepared and stored at −80° C. until needed. Compound stability in liver microsomes is measured at 0, 15, 30, 45 and 60 minutes in duplicate, using LC-MS/MS analysis.

[2] = Plasma stability, pig (Table 1); assay type: in vitro ADME
[3] = Microsomal stability, rat (Table 1); assay type: in vitro ADME; conditions: liver microsomes; Rat: Sprague Dawley; read-out: Microsomal Stability t1/2 (converted)
[4] = PHB4082 IP, IV Study (cyclodextrin/PEG/tween vehicle); assay type: in vivo, C57BL/6 mice; conditions: both sexes, C57BL/6, mouse; for concentration at 2 h / concentration at 4 h: 10 mg/kg
Protocol: C57BL/6 mice (8-weeks of age and ˜25 g weight) were weighed before injection and divided into groups of two male and female mice per cage. PHB4082 was dissolved in 5% DMSO/95% of 1:1 [(65% v/v of 25% w/v 2-hydroxypropyl-3-cyclodextrin (Cayman Chemical) dissolved in 20% EtOH, 30% v/v Poly(ethylene glycol)-400 (Sigma Aldrich 202398), 5% v/v Tween 80 (Fluka 59924)):MilliQ water] to create a 2 mg/mL solution. The same formulation without PHB4082 was used as a vehicle control. The solution was sterilized using a […] Steriflip filter unit (Thomas Scientific 1189Q46). Mice were dosed IP, and IV routes of administration and euthanized by CO2 asphyxiation for 3 min at 2 and 4 h after administration. To ensure that the vehicle was well-tolerated, four mice for each timepoint were treated with vehicle and euthanized 4 h and 24 h after administration. ˜0.5 mL of blood was collected via cardiac puncture and immediately put in K3 EDTA microtubes ([…] 41.1504.105) and kept on ice. Organs were harvested, placed in Eppendorf tubes, and frozen on dry ice. Blood samples were centrifuged for 10 min at 2,100×g at 4° C., then plasma was transferred to a clean tube and frozen on dry ice. Organ samples were weighed and placed in hard tissue homogenizing tubes (Omni International 19-628) and a volume of DEPC-treated nuclease-free water (IBI Scientific IB42200) was added to make a 500 mg/mL solution and homogenized using the Omni Bead Ruptor 4 at speed 5 for 30 seconds. Compound was extracted from plasma or organ homogenate by adding 900 μL acetonitrile to 100 μL plasma or organ homogenate. Samples were mixed by vortexing and allowed to extract overnight at 4° C. prior to mixing for at least 5 min by rotating at room temperature, vortexing, and sonicating for at least 30 second prior to centrifugation for 10 min at 4,000×g and 4° C. The supernatant was then transferred to a glass vial and analyzed by UPLC-MS described below. The base peak chromatogram was integrated and quantified by standard curve concurrently ran.
To determine whether PHB4082 accumulated in brain preferentially over plasma, the log10(Brain/Plasma) ratio was calculated for each time-point with a log10(Brain/Plasma) >0 indicating preferential accumulation in brain over plasma. We observed that PHB4082 did slightly accumulate in brain over plasma as time progressed (FIG. 21B); however, at the time-point where PHB4082 preferentially accumulated in brain, the difference in concentration in the brain compared to plasma was low, indicated by the near 0 log values.

[5] = PHB4082 IP PK Study (plasma, brain, liver, kidney); assay type: in vivo, C57BL/6 mice
Protocol: C57BL/6 mice (8-weeks of age and ˜25 g weight) were weighed before injection and divided into groups of two male and female mice per cage. PHB4082 was dissolved in 5% DMSO/95% of 65% v/v of 25% w/v 2-hydroxypropyl-3-cyclodextrin (Cayman Chemical) dissolved in 20% EtOH, 30% v/v Poly(ethylene glycol)-400 (Sigma Aldrich 202398), 5% v/v Tween 80 (Fluka 59924) to create a 2 mg/mL Solution. The same formulation without PHB4082 was used as a vehicle control. The solution was sterilized using a […] Steriflip filter unit (Thomas Scientific 1189Q46) and stored at 4° C. Mice were dosed IP and euthanized by CO2 asphyxiation for 3 min at 0, 1, 2, 4, and 8 h after administration. To ensure that the vehicle was well-tolerated, four mice were treated with vehicle and euthanized 4 h after administration. ˜0.5 mL of blood was collected via cardiac puncture and immediately put in K3 EDTA microtubes ([…] 41.1504.105) and kept on ice. Organs were harvested, placed in Eppendorf tubes, and frozen on dry ice. Blood samples were centrifuged for 10 min at 2,100×g at 4° C., then plasma was transferred to a clean tube and frozen on dry ice. Organ samples were weighed and placed in hard tissue homogenizing tubes (Omni International 19-628) and a volume of DEPC-treated nuclease-free water (IBI Scientific IB42200) was added to make a 500 mg/mL solution and homogenized using the Omni Bead Ruptor 4 at speed 5 for 30 seconds. PHB4082 was extracted from plasma or organ homogenate by adding 900 μL acetonitrile to 100 μL plasma or organ homogenate. Samples were mixed by vortexing and allowed to extract overnight at 4° C. prior to mixing for at least 5 min by rotating at room temperature, vortexing, and sonicating for at least 30 second prior to centrifugation for 10 min at 4,000×g and 4° C. The supernatant was then transferred to a glass vial and dried under nitrogen. After drying, the samples were resuspended in 100 μL of methanol and analyzed by UPLC-MS described below. The concentration of PHB4082 was determined against a standard curve with a linear fit and the data plot in GraphPad Prism 9 and fit with a one phase decay.
To evaluate whether PHB4082 was a suitable candidate for in vivo studies, we performed a pharmacokinetic study of PHB4082 in C57BL/6 mice at ˜8 weeks of age. To evaluate sex-specific effects on compound metabolism, two male and two female mice were used for each condition. Mice were dosed at 20 mg/kg via intraperitoneal (IP) injection and the injection volume ranged from 180 uL to 300 uL based on different body weights. […] Extracts were analyzed via UPLC-MS and the concentration of compound determined against a standard curve ran concurrently with samples.

[6] = brain, IP Administration, read-out: [PHB4082]brain
[7] = brain, IV Administration, read-out: [PHB4082]brain
[8] = plasma, IP Administration, read-out: [PHB4082]plasma
[9] = plasma, IV Administration, read-out: [PHB4082]plasma

CCOC(=O)c1ccc(NC2CCCCC2)c(N)c1 [Fer-1, Ferrostatin-1, reference compound]
Microsomal Stability, % remaining t = 120 [1]: 49.5 ± 9.6% | Plasma Stability at six hours (% remaining) [2]: Pig: 100% | half-life [3]: 3 min

Cc1noc(-c2ccc(NC3CCCCC3)c(NC3CCCCC3)c2)n1 [PHB4082, N1,N2-dicyclohexyl-4-(3-methyl-1,2,4-oxadiazol-5-yl)benzene-1,2-diamine]
log10 Kp (brain/plasma) ([4]; brain and plasma, other: intraperitoneally and intravenously, 10 mg/kg intraperitoneally and intravenously): < 0 | concentration at 2 h [4, 6]: 114 ± 21 nM | concentration at 4 h [4, 6]: 99 ± 62 nM | concentration at 2 h [4, 7]: 557 ± 245 nM | concentration at 4 h [4, 7]: 176 ± 76 nM | concentration at 4 h [4, 8]: 306 ± 379 nM | concentration at 2 h [4, 9]: 634 ± 359 nM | concentration at 4 h [4, 9]: 281 ± 284 nM | concentration at 2 h [4, 8]: 957 ± 693 nM | accumulation in plasma and brain ([5]; 20 mg/kg IP): ~100 nM | tissue accumulation, in words ([5]; IP): stably accumulates in mouse kidney with minimal accumulation observed in brain | concentration in brain ([5]; PK study of PHB4082): around 200 nM | concentration at 8 h ([5]; both sexes, C57BL/6, mouse, kidney, intraperitoneal, 20 mg/kg IP, at eight hours): 1800 nM
